The results in this text go back to patent US20110039819A1, “SUBSTITUTED PHENOXYBENZAMIDES” (priority 2008, published 2011).

The structures appear in SMILES notation. Where only a bound is given, the exact number is not on record here.

A word on the IC50: it is the point on the concentration scale where inhibition reaches its midpoint.

T1 sequence (Q02750 whole entry): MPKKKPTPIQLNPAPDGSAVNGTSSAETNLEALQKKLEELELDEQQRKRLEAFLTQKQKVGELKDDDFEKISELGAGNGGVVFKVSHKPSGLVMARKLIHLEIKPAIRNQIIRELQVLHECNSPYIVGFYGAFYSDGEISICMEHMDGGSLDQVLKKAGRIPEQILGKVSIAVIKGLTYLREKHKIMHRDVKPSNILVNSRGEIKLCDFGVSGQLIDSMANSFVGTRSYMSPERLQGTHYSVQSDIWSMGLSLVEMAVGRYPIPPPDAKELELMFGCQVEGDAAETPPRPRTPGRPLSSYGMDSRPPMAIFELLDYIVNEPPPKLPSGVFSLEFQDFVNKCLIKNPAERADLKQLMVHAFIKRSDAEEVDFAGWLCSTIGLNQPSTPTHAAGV

One experiment has as its target T1, MEK1 (Homo sapiens, UniProt Q02750).
T1 construct: purchased Millipore 14-420 (GST-MEK1); 14-703 (Cot1); host or cells: Cot1: insect cells (SF21)
The experiment is described as follows: MEK1 activation kinase assay (Assay 2, HTRF; Cot1 phosphorylates GST-MEK1). It is filed as biochemical. The note with it: IC50 in MEK1 activation kinase assay, representative example compounds. The procedure:
MEK1 Activation Kinase Assay
The kinase Cot1 activates MEK1 by phosphorylating its activation loop. The inhibitory activity of compounds of the present invention on this activation of MEK1 was quantified employing the HTRF assay described in the following paragraphs.
As substrate for the kinase reaction the unactive C-terminally His6-tagged GST-MEK1 fusion protein (Millipore cat. no 14-420) was used.
Then the kinase reaction was started by the addition of 2 μl of a solution of Cot1 in assay buffer and the resulting mixture was incubated for a reaction time of 20 min at 22° C. The concentration of Cot1 in the assay was adjusted depending of the activity of the enzyme lot and was chosen appropriate to have the assay in the linear range, typical enzyme concentrations were in the range of about 2 ng/μl (final conc. in the 5 μl assay volume).
The resulting mixture was incubated 2 h at 22° C. to allow the binding of the phosphorylated GST-MEK1 to the anti-GST-XL665 and the Eu-cryptate labelled anti-phospho-MEK 1/2 antibody. Subsequently the amount of Ser217/Ser221-phosphorylated substrate was evaluated by measurement of the resonance energy transfer from the Eu-Cryptate-labelled anti-phospho-MEK antibody to the anti-GST-XL665.
Background: In TR-FRET formats the signal depends on donor and acceptor labels being close together.
With `CNS(=O)(=O)Nc1cccc(Oc2cc(F)cc(Nc3ccc(I)cc3F)c2C(N)=O)c1` [Example 5.41, 2-[3-[[(methylamino)sulfonyl]amino]phenoxy]-4-fluoro-6-[(2-fluoro-4-iodophenyl)amino]-benzamide], the IC50 is less than 1000 nM.

The same experiment, now with this note: mean values from 2 or more measurements; read-out: Assay 2 IC50 values (nanomolar) (MEK1 activation kinase assay) (values are mean values from 2 or more measurements).
For `NC(=O)c1c(Nc2ccc(I)cc2F)cc(F)cc1Oc1cccc(NS(N)(=O)=O)c1` [Example 5.7, 2-[3-[[(amino)sulfonyl]amino]phenoxy]-4-fluoro-6-[(2-fluoro-4-iodophenyl)amino]-benzamide], the IC50 came to 18.5 nM.
Consider `NC(=O)c1c(Nc2ccc(I)cc2F)cc(F)cc1Oc1cccc(NS(=O)(=O)N2CCOCC2)c1` [Example 5.24, 4-Fluoro-2-(2-fluoro-4-iodo-phenylamino)-6-[3-(morpholine-4-sulfonylamino)-phenoxy]-benzamide], for which the IC50 was determined as 25.9 nM.
On the same count and under the same terms, the result for `CN(C)C(=O)N1CCN(CCOc2cc(F)cc(Nc3ccc(I)cc3F)c2C(N)=O)CC1` [Example 5.30, 4-{2-[2-Carbamoyl-5-fluoro-3-(2-fluoro-4-iodo-phenylamino)-phenoxy]-ethyl}-piperazine-1-carboxylic acid dimethylamide] reads 138 nM; that for `CS(=O)(=O)N1CCN(CCOc2cc(F)cc(Nc3ccc(I)cc3F)c2C(N)=O)CC1` [Example 5.31, 4-Fluoro-2-(2-fluoro-4-iodo-phenylamino)-6-[2-(4-methanesulfonyl-piperazin-1-yl)-ethoxy]-benzamide], 153 nM.
As for `CS(=O)(=O)N1CCC[C@@H]1COc1cc(F)cc(Nc2ccc(I)cc2F)c1C(N)=O` [Example 5.32, 4-Fluoro-2-(2-fluoro-4-iodo-phenylamino)-6-((R)-1-methanesulfonyl-pyrrolidin-2-ylmethoxy)-benzamide], the IC50 turned out to be 35.4 nM.
Regarding `CCS(=O)(=O)N1CCC[C@@H]1COc1cc(F)cc(Nc2ccc(I)cc2F)c1C(N)=O` [Example 5.33, 2-((R)-1-Ethanesulfonyl-pyrrolidin-2-ylmethoxy)-4-fluoro-6-(2-fluoro-4-iodo-phenylamino)-benzamide], the IC50 came to 91.6 nM.
For `CCS(=O)(=O)N1CCC[C@H]1COc1cc(F)cc(Nc2ccc(I)cc2F)c1C(N)=O` [Example 5.34, 2-((S)-1-Ethanesulfonyl-pyrrolidin-2-ylmethoxy)-4-fluoro-6-(2-fluoro-4-iodo-phenylamino)-benzamide], the IC50 stood at 96.5 nM.
On to `NC(=O)c1c(Nc2ccc(I)cc2F)cc(F)cc1Oc1cccc(NS(=O)(=O)C2CC2)c1` [Example 5.36, 2-(3- Cyclopropanesulfonylamino-phenoxy)-4-fluoro-6-(2-fluoro-4-iodo-phenylamino)-benzamide], for which the IC50 was determined as 14.5 nM.
With `NC(=O)c1c(Nc2ccc(I)cc2F)cc(F)cc1Oc1cccc(NS(=O)(=O)C2CCCC2)c1` [Example 5.37, 2-(3- Cyclopentanesulfonylamino-phenoxy)-4-fluoro-6-(2-fluoro-4-iodo-phenylamino)-benzamide], the IC50 stood at 20.4 nM.
On to `CCN(CC)S(=O)(=O)Nc1cccc(Oc2cc(F)cc(Nc3ccc(I)cc3F)c2C(N)=O)c1` [Example 5.38, 2-(3-diethylsulfamoyl-amino-phenoxy)-4-fluoro-6-(2-fluoro-4-iodo-phenylamino)-benzamide], for which the IC50 came out at 55.3 nM.
As to `CC(=O)N1CCC[C@@H]1COc1cc(F)cc(Nc2ccc(I)cc2F)c1C(N)=O` [Example 5.39, 2-((R)-1-Acetyl-pyrrolidin-2-ylmethoxy)-4-fluoro-6-(2-fluoro-4-iodo-phenylamino)-benzamide], the IC50 turned out to be 438 nM.
In the case of `CNS(=O)(=O)Nc1cccc(Oc2cc(F)cc(Nc3ccc(I)cc3F)c2C(N)=O)c1` [Example 5.41, 2-[3-[[(methylamino)sulfonyl]amino]phenoxy]-4-fluoro-6-[(2-fluoro-4-iodophenyl)amino]-benzamide], the IC50 worked out at 22.2 nM.
The same measure, in the same setting: the result for `NC(=O)c1c(Nc2ccc(I)cc2F)cc(F)cc1Oc1cccc(NS(=O)(=O)C2CCC2)c1` [Example 5.48, 2-(3-Cyclobutanesulfonyl-amino-phenoxy)-4-fluoro-6-(2-fluoro-4-iodo-phenylamino)-benzamide] reads 16.9 nM; that for `NC(=O)c1c(Nc2ccc(I)cc2F)cc(F)cc1Oc1cccc(NS(=O)(=O)c2c[nH]cn2)c1` [Example 5.49, 4-Fluoro-2-(2-fluoro-4-iodo-phenylamino)-6-[3-(1H-imidazole-4-sulfonylamino)-phenoxy]-benzamide], 15.7 nM.
As to `CN(C)S(=O)(=O)NCc1cccc(Oc2cc(F)cc(Nc3ccc(I)cc3F)c2C(N)=O)c1` [Example 5.67, 6-[3-(dimethyl-aminosulfonylamino-methyl)-phenoxy]-4-fluoro-2-(2-fluoro-4-iodo-phenylamino)-6-benzamide], the IC50 came to 63.4 nM.
For `CS(=O)(=O)NCc1cccc(Oc2cc(F)cc(Nc3ccc(I)cc3F)c2C(N)=O)c1` [Example 5.68, 4-Fluoro-2-(2-fluoro-4-iodo-phenylamino)-6-[3-(methane-sulfonylamino-methyl)-phenoxy]-benzamide], the IC50 is 43.2 nM.
With `CC(=O)NCc1cccc(Oc2cc(F)cc(Nc3ccc(I)cc3F)c2C(N)=O)c1` [Example 5.69, 2-[3-(Acetylamino-methyl)-phenoxy]-4-fluoro-6-(2-fluoro-4-iodo-phenylamino)-benzamide], the IC50 came to 18.3 nM.
Regarding `NC(=O)c1c(Nc2ccc(I)cc2F)cc(F)cc1Oc1cccc(NC(=O)c2ccsc2)c1` [Example 5.75, Thiophene-3-carboxylic acid {3-[2-carbamoyl-5-fluoro-3-(2-fluoro-4-iodo-phenylamino)-phenoxy]-phenyl}-amide], the IC50 stood at 103 nM.
For the compound `NC(=O)c1c(Nc2ccc(I)cc2F)cc(F)cc1Oc1cccc(NC(=O)c2csnn2)c1` [Example 5.76, [1,2,3]Thiadiazole-4-carboxylic acid {3-[2-carbamoyl-5-fluoro-3-(2-fluoro-4-iodo-phenylamino)-phenoxy]-phenyl}-amide], the IC50 came to 70.3 nM.
In the case of `NC(=O)c1c(Nc2ccc(I)cc2F)cc(F)cc1Oc1cccc(NC(=O)c2ccoc2)c1` [Example 5.77, Furan-3-carboxylic acid {3-[2-carbamoyl-5-fluoro-3-(2-fluoro-4-iodo-phenylamino)-phenoxy]-phenyl}-amide], the IC50 is 127 nM.
For `NC(=O)c1c(Nc2ccc(I)cc2F)cc(F)cc1Oc1cccc(NC(=O)c2ccno2)c1` [Example 5.78, Isoxazole-5-carboxylic acid {3-[2-carbamoyl-5-fluoro-3-(2-fluoro-4-iodo-phenylamino)-phenoxy]-phenyl}-amide], the IC50 came to 86.2 nM.
Take `NC(=O)c1c(Nc2ccc(I)cc2F)cc(F)cc1Oc1cccc(NC(=O)c2cn[nH]c2)c1` [Example 5.79, 1H-Pyrazole-4-carboxylic acid {3-[2-carbamoyl-5-fluoro-3-(2-fluoro-4-iodo-phenylamino)-phenoxy]-phenyl}-amide]: the IC50 worked out at 77.8 nM.
For the compound `NC(=O)c1c(Nc2ccc(I)cc2F)cc(F)cc1Oc1cccc(NC(=O)C2CCC2)c1` [Example 5.80, 2-[3-(Cyclo-butanecarbonyl-amino)-phenoxy]-4-fluoro-6-(2-fluoro-4-iodo-phenylamino)-benzamide], the IC50 amounted to 137 nM.
Turning to `NC(=O)c1c(Nc2ccc(I)cc2F)cc(F)cc1Oc1cccc(NC(=O)c2cc[nH]n2)c1` [Example 5.81, 1H-Pyrazole-3-carboxylic acid {3-[2-carbamoyl-5-fluoro-3-(2-fluoro-4-iodo-phenylamino)-phenoxy]-phenyl}-amide], the IC50 amounted to 96.4 nM.
Consider `Cn1cncc1C(=O)Nc1cccc(Oc2cc(F)cc(Nc3ccc(I)cc3F)c2C(N)=O)c1` [Example 5.82, 3-Methyl-3H-imidazole-4-carboxylic acid {3-[2-carbamoyl-5-fluoro-3-(2-fluoro-4-iodo-phenylamino)-phenoxy]-phenyl}-amide], for which the IC50 was 49.9 nM.
The same measure, in the same setting: under `Cc1nocc1C(=O)Nc1cccc(Oc2cc(F)cc(Nc3ccc(I)cc3F)c2C(N)=O)c1` [Example 5.83, 3-Methyl-isoxazole-4-carboxylic acid {3-[2-carbamoyl-5-fluoro-3-(2-fluoro-4-iodo-phenylamino)-phenoxy]-phenyl}-amide] stands 143 nM; under `NC(=O)c1c(Nc2ccc(I)cc2F)cc(F)cc1Oc1cccc(NC(=O)c2ccon2)c1` [Example 5.84, Isoxazole-3-carboxylic acid {3-[2-carbamoyl-5-fluoro-3-(2-fluoro-4-iodo-phenylamino)-phenoxy]-phenyl}-amide], 75.4 nM; under `NC(=O)c1c(Nc2ccc(I)cc2F)cc(F)cc1Oc1cncc(NS(=O)(=O)c2c[nH]cn2)c1` [Example 5.93, 4-Fluoro-2-(2-fluoro-4-iodo-phenylamino)-6-[5-(1H-imidazole-4-sulfonylamino)-pyridin-3-yloxy]-benzamide], 86 nM.
For the compound `NC(=O)c1c(Nc2ccc(I)cc2F)cc(F)cc1Oc1cccc(NS(=O)(=O)NCC(F)(F)F)c1` [Example 5.94, 4-fluoro-2-[(2-fluoro-4-iodophenyl)amino]-6-(3-{[(2,2,2-trifluoroethyl)-sulfamoyl]amino}phenoxy)benzamide], the IC50 was 55.5 nM.
In the case of `COCCS(=O)(=O)Nc1cccc(Oc2cc(F)cc(Nc3ccc(I)cc3F)c2C(N)=O)c1` [Example 5.95, 4-fluoro-2-[(2-fluoro-4-iodophenyl)amino]-6-(3-{[(2-methoxyethyl)sulfonyl]amino}phenoxy)benzamide], the half-maximal inhibitory concentration (IC50) is 25.1 nM.

Still in this experiment, the particulars now being: representative example compounds; read-out: IC50 in MEK1 activation kinase assay.
On to `NC(=O)c1c(Nc2ccc(I)cc2F)cc(F)cc1Oc1cccc(NS(=O)(=O)N2CCOCC2)c1` [Example 5.24, 4-Fluoro-2-(2-fluoro-4-iodo-phenylamino)-6-[3-(morpholine-4-sulfonylamino)-phenoxy]-benzamide], for which the IC50 was less than 1000 nM.
Regarding `NC(=O)c1c(Nc2ccc(I)cc2F)cc(F)cc1Oc1cccc(NS(=O)(=O)C2CCC2)c1` [Example 5.48, 2-(3-Cyclobutanesulfonyl-amino-phenoxy)-4-fluoro-6-(2-fluoro-4-iodo-phenylamino)-benzamide], the IC50 was less than 1000 nM.
Turning to `NC(=O)c1c(Nc2ccc(I)cc2F)cc(F)cc1Oc1cccc(NS(=O)(=O)c2c[nH]cn2)c1` [Example 5.49, 4-Fluoro-2-(2-fluoro-4-iodo-phenylamino)-6-[3-(1H-imidazole-4-sulfonylamino)-phenoxy]-benzamide], the IC50 is less than 1000 nM.
